pEC50: −log10 of the molar value. Values after ≈ are worked out from the molar mass of the structure shown. Where two headings read alike, the source gives them in different places. Starred links: 1 amine or outer side, 2 acyl side, 3 side chain; linkers in the order of their positions; H or OH if unused. Non-standard residues stand in square brackets, D forms with d. Residues, ends and D or L forms follow the SMILES beside them. Groups on a side chain read outwards from the residue. *: point of attachment. C16 diacid = O=C(O)CCCCCCCCCCCCCCC(=O)*; γGlu = O=C(O)[C@H](CCC(=O)[*:2])N[*:1]; Palmitoyl = CCCCCCCCCCCCCCCC(=O)*; Aib = CC(C)(N)C(=O)O
Key:
CRF2R = biological target: T1, CRF2R (Homo sapiens, UniProt Q13324); assay: EC50 [nM] CRF2R
T1 construct: expressed in transfected cells; host or cells: TeloHEAC
From the text: Table printed on a drawing sheet, Fig. 3
Head of the field: EC50 [nM] CRF2R
The patent's description of the figure: FIG. 3: Representative sequences from peptides according to the invention with an optimized stability profile, wherein K[sema] stands for K[gGlu-C(O)(CH2)14CH3]
First copying reader's note: Second half (positions 13-38, C-term and activity) of the first table; the rows follow the same order, so the four rows of Peptide Seq. 1 are Patent Sequence N° 130, 171, 172 and 173.
Where the first naming reader finds the target: head: EC50 [nM] CRF2R

[1] = Buffer solubility by LC-UV, pH 7.4 phosphate and pH 4.5 acetate (Example 19.11); type: physicochemical; conditions: target 10 mg/mL
Experimental: As for example 15 above, also the chemical stability of representative examples of these FA modified peptides has been assessed, using LC-UV instead of light scattering. Solubility and chemical stability were studied in 100 mM phosphate buffer (pH 7.4) and 100 mM acetate buffer (pH 4.5). Test compound powders were dissolved in both buffers at a target concentration of 10 mg/mL and incubated for 1 hour at room temperature. After centrifugation at 2500 rcf for 15 minutes, […] of supernatant was diluted with […] of the incubation buffer and analyzed by LC-UV (Acquity UPLC-DAD, Waters). Solubility was calculated by comparing the peak area of the test compound in the buffer sample with the peak area of the same compound dissolved at 0.5 mg/ml in water:acetonitrile 1:1, 0.1% formic acid.

CRF1R receptor = biological target: T2, CRF1R receptor (Homo sapiens, UniProt P34998); assay: cAMP activity at anti-target CRF1R, CHO-K1 cell line clone 2 (Example 19.10); type: cell-based
T2 construct: host or cells: CHO-K1 clone 2
T2 sequence (P34998 24-415): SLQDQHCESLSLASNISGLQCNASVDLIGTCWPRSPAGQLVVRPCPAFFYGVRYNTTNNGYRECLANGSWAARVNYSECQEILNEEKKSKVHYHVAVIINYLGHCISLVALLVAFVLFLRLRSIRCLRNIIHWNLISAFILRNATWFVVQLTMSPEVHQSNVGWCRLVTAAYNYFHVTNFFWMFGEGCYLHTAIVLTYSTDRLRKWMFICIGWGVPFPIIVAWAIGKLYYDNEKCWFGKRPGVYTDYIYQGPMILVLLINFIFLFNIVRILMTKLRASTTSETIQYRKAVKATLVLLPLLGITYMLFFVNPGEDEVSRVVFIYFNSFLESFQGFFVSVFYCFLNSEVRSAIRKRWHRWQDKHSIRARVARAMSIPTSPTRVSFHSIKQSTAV
Summary of the method: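 The cAMP read-out used the same protocol as the previous assay, except that Sauvagine at 100 nM set the 100% activation control. Cells were CHO-K1 clone 2 overexpressing CRF1R, cultured in F12 medium with 10% FBS and G418 and stored frozen until use.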

human CRF2α receptor = biological target: T3, human CRF2α receptor (Homo sapiens, UniProt Q13324); assay: cAMP agonism at human CRF2α receptor in TeloHEAC cells, FA modified peptides (Example 19.9); type: cell-based; conditions: 0% HSA, relative to urocortin 2
T3 construct: expressed in transfected cells; host or cells: TeloHEAC
T3 sequence (Q13324 1-411): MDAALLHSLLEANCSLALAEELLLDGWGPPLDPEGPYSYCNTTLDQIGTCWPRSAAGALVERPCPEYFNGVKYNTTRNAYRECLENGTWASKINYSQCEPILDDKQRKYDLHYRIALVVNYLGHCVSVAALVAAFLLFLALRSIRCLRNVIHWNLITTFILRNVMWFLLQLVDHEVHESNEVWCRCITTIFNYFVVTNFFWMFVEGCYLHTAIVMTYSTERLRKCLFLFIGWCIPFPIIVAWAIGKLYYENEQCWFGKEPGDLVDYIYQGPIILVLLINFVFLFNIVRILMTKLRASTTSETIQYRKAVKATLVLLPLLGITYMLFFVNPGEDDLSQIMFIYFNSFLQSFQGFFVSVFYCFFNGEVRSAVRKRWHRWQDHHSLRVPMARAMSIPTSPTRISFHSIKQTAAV
Summary of the method: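 Efficacy and EC50 are referenced to 100 nM urocortin 2 as 100%, with cAMP measured as the 665/620 nm HTRF ratio after 1 h at room temperature. Compounds (0.5 mM DMSO stock, 16 twofold dilutions) acted 30 min at 37 °C on CRF2α-expressing TeloHEAC cells, buffer containing IBMX and 0% or 0.2% HSA.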

[2] = In vitro plasma stability, human plasma (Example 19.11); type: in vitro ADME; design: dose or concentration left out as unconfirmed; conditions: 37° C.
Experimental: (§1) In vitro plasma metabolic stability was studied in male Sprague Dawley rats and human. Test compound were incubated […] for 2 hours at 37° C. At each time point (0, 0.25, 1 and 2 h), samples were prepared for analysis by means of a single step protein precipitation technique by adding 150 μL of ethanol, 0.1% formic acid to 50 μL aliquots of plasma. Samples were mixed by vortex for homogeneity and then subjected to centrifugation at 14000 rpm for 15 min. The supernatant (100 μL) was collected, diluted with 100 μL of water, 0.1% formic acid and analyzed by LC-HRMS (TripleTOF 6600+, AB Sciex). For each test compound, the area ratios at each time point were compared to the 0 h area ratio and converted to a percentage remaining.

[3] = In vitro plasma stability, rat plasma (Example 19.11); type: in vitro ADME, Sprague Dawley rats; design: remaining at 2 h: dose or concentration left out as unconfirmed; conditions: male, Sprague Dawley, rat, plasma, 37° C.
Experimental: as §1

SMILES: CCCCCCCCCCCCCCCC(=O)N[C@@H](CCC(=O)NCCCC[C@H](NC(=O)[C@H](CC(C)C)NC(=O)CNC(=O)[C@@H](NC(=O)[C@@H]1CCCN1C(=O)[C@@H](NC(=O)[C@H](CC(=O)O)NC(=O)[C@H](CC(C)C)NC(=O)[C@H](CO)NC(=O)[C@H](CC(C)C)NC(=O)[C@@H](NC(=O)[C@@H](N)[C@@H](C)CC)C(C)C)C(C)C)[C@@H](C)CC)C(=O)N[C@@H](CCC(N)=O)C(=O)N[C@@H](CCCCN)C(=O)N[C@@H](CC(C)C)C(=O)N[C@@H](CC(C)C)C(=O)N[C@@H](CCCCN)C(=O)N[C@@H](CCC(N)=O)C(=O)N[C@@H](CCC(N)=O)C(=O)N[C@@H](CCCNC(=N)N)C(=O)N[C@@H](CCC(N)=O)C(=O)N[C@@H](CCCNC(=N)N)C(=O)N[C@@H](CCCCN)C(=O)N[C@@H](CCC(=O)O)C(=O)N[C@@H](CCCNC(=N)N)C(=O)N[C@@H](CCC(N)=O)C(=O)N[C@@H](CCC(N)=O)C(=O)N[C@@H](C)C(=O)N[C@@H](CCC(=O)O)C(=O)N[C@@H](CCCCN)C(=O)N[C@@H](CC(N)=O)C(=O)N[C@@H](C)C(=O)N[C@@H](CCCNC(=N)N)C(=O)N[C@H](C(=O)N[C@@H](CC(C)C)C(=O)N[C@@H](C)C(=O)N[C@@H](CCCNC(=N)N)C(=O)N[C@H](C(N)=O)C(C)C)[C@@H](C)CC)C(=O)O [SEQ ID NO: 6] (H-IVLSLDVPIGLK([γGlu-Palmitoyl])QKLLKQQRQRKERQQAEKNARILARV-NH2)
- EC50 (CRF2R): 0.06 nM

SMILES: CCCCCCCCCCCCCCCC(=O)N[C@@H](CCC(=O)NCCCC[C@H](NC(=O)[C@@H](NC(=O)[C@H](CCCCN)NC(=O)[C@@H](NC(=O)[C@@H]1CCCN1C(=O)[C@@H](NC(=O)[C@H](CC(=O)O)NC(=O)[C@H](CC(C)C)NC(=O)[C@H](CO)NC(=O)[C@H](CC(C)C)NC(=O)[C@@H](NC(=O)[C@@H](N)Cc1ccccc1)[C@@H](C)O)C(C)C)[C@@H](C)O)[C@@H](C)CC)C(=O)N[C@@H](CCC(N)=O)C(=O)N[C@@H](CCCCN)C(=O)N[C@@H](CC(C)C)C(=O)N[C@@H](CC(C)C)C(=O)N[C@@H](CCCCN)C(=O)N[C@@H](CCC(N)=O)C(=O)N[C@@H](CCC(=O)O)C(=O)N[C@@H](CCCCN)C(=O)N[C@@H](CCC(N)=O)C(=O)N[C@@H](CCCCN)C(=O)N[C@@H](CCCCN)C(=O)N[C@@H](CCC(N)=O)C(=O)N[C@@H](CCCNC(=N)N)C(=O)N[C@@H](CCC(N)=O)C(=O)N[C@@H](CCCCN)C(=O)N[C@@H](C)C(=O)N[C@@H](CCCCN)C(=O)N[C@H](C(=O)N[C@@H](C)C(=O)N[C@@H](C)C(=O)N[C@@H](CCC(N)=O)C(=O)N[C@H](C(=O)N[C@@H](CC(C)C)C(=O)N[C@@H](C)C(=O)N[C@@H](CCC(N)=O)C(=O)N[C@H](C(N)=O)C(C)C)[C@@H](C)CC)[C@@H](C)O)C(=O)O [SEQ ID NO: 8] (H-FTLSLDVPTKIK([γGlu-Palmitoyl])QKLLKQEKQKKQRQKAKTAAQILAQV-NH2)
- EC50 (CRF2R): 0.18 nM

SMILES: CCCCCCCCCCCCCCCC(=O)N[C@@H](CCC(=O)NCCCC[C@H](NC(=O)[C@@H](NC(=O)[C@H](CCCCN)NC(=O)[C@@H](NC(=O)[C@@H]1CCCN1C(=O)[C@@H](NC(=O)[C@H](CC(=O)O)NC(=O)[C@H](CC(C)C)NC(=O)[C@H](CO)NC(=O)[C@H](CC(C)C)NC(=O)[C@@H](NC(=O)[C@@H](N)Cc1ccccc1)[C@@H](C)O)C(C)C)[C@@H](C)O)[C@@H](C)CC)C(=O)N[C@@H](CCC(N)=O)C(=O)N[C@@H](CCCCN)C(=O)N[C@@H](CC(C)C)C(=O)N[C@@H](CC(C)C)C(=O)N[C@@H](CCCCN)C(=O)N[C@@H](CCC(N)=O)C(=O)N[C@@H](CCC(=O)O)C(=O)N[C@@H](CCCCN)C(=O)N[C@@H](CCC(N)=O)C(=O)N[C@@H](CCCCN)C(=O)N[C@@H](CCCCN)C(=O)N[C@@H](CCC(N)=O)C(=O)N[C@@H](CCCNC(=N)N)C(=O)N[C@@H](CCC(N)=O)C(=O)N[C@@H](CCCCN)C(=O)N[C@@H](C)C(=O)N[C@@H](CCCCN)C(=O)N[C@H](C(=O)N[C@@H](C)C(=O)N[C@@H](CCCCN)C(=O)N[C@@H](CCC(N)=O)C(=O)N[C@H](C(=O)N[C@@H](CC(C)C)C(=O)N[C@@H](CCC(=O)O)C(=O)N[C@@H](CCC(N)=O)C(=O)N[C@H](C(N)=O)C(C)C)[C@@H](C)CC)[C@@H](C)O)C(=O)O [SEQ ID NO: 9] (H-FTLSLDVPTKIK([γGlu-Palmitoyl])QKLLKQEKQKKQRQKAKTAKQILEQV-NH2)
- EC50 (CRF2R): 0.08 nM

SMILES: CC[C@H](C)[C@H](N)C(=O)N[C@H](C(=O)N[C@@H](CC(C)C)C(=O)N[C@@H](CO)C(=O)N[C@@H](CC(C)C)C(=O)N[C@@H](CC(=O)O)C(=O)N[C@@H](C(=O)N1CCC[C@H]1C(=O)N[C@H](C(=O)NCC(=O)N[C@@H](CC(C)C)C(=O)N[C@@H](CCCCNC(=O)CC[C@H](NC(=O)CCCCCCCCCCCCCCC(=O)O)C(=O)O)C(=O)N[C@@H](CCC(N)=O)C(=O)N[C@H](C(=O)N[C@@H](CC(C)C)C(=O)N[C@@H](CC(C)C)C(=O)N[C@@H](CCCCN)C(=O)N[C@@H](CCC(N)=O)C(=O)N[C@@H](CCC(=O)O)C(=O)N[C@@H](CCCNC(=N)N)C(=O)N[C@@H](CCC(N)=O)C(=O)N[C@@H](CCCCN)C(=O)N[C@@H](CCCCN)C(=O)NC(C)(C)C(=O)N[C@@H](CCCNC(=N)N)C(=O)N[C@@H](CCC(=O)O)C(=O)N[C@@H](CCC(N)=O)C(=O)N[C@@H](C)C(=O)N[C@@H](CCC(=O)O)C(=O)N[C@H](C(=O)N[C@@H](CC(N)=O)C(=O)N[C@@H](CCCCN)C(=O)N[C@@H](CCCNC(=N)N)C(=O)N[C@H](C(=O)N[C@@H](CC(C)C)C(=O)N[C@@H](CCC(=O)O)C(=O)N[C@@H](CCCNC(=N)N)C(=O)N[C@H](C(N)=O)C(C)C)[C@@H](C)CC)[C@@H](C)O)[C@@H](C)CC)[C@@H](C)CC)C(C)C)C(C)C [compound 193] (H-IVLSLD[dV]PIGLK([γGlu-C16 diacid])QILLKQERQKK[Aib]REQAETNKRILERV-NH2)
- solubility at 1 h ([1]; pH 4.5, 100 mM acetate buffer): 8600 µg/mL (≈ 1770 µM)
- solubility at 1 h ([1]; pH 7.4, 100 mM phosphate buffer): 100 µg/mL (≈ 20.6 µM)
- EC50 (CRF1R receptor; 0% HSA, CRF1R CHO-K1 clone 2, read-out: EC50 [nM] 0% HSA): > 100 nM
- Emax (CRF1R receptor; 100% = Sauvagine at 100 nM, CRF1R CHO-K1 clone 2): 8.77%
- pEC50 (CRF1R receptor; Table 20 side-to-side comparison, read-out: CRF1 EC50): < 7.00
- CRF1/CRF2 ratio (CRF1R receptor; ratio of CRF1 EC50 to CRF2 EC50): >500
- EC50 (human CRF2α receptor): 0.82 nM
- remaining at 2 h [2]: 80%
- remaining at 2 h [3]: 84%
